Patent US20060147456A1, “Induction of apoptosis in toll-like receptor expressing tumor cells” (priority 2004, published 2006)

What was measured:
Assay type in all cases: cell-based, human
Cama-1 = test: Cell recovery by crystal violet staining; settings: 50 μg/ml Poly IC, 72 h
Method: (§1) Cell recovery after treatment with TLR ligands was measured by crystal violet staining (Sigma-Aldrich). Cells were plated at 10^4 cells/well in 96 well plates. After 72 hours of culture either with or without TLR ligand, the cells were washed with PBS, fixed in 6% formaldehyde (Sigma-Aldrich) for 20 minutes, washed twice, and then stained with 0.1% crystal violet for 10 minutes. After washes and incubation in 1% SDS for 1 hour, the absorbance was read at 605 nm on a Vmax plate reader (Molecular Devices, Sunnyvale, Calif.). Annexin V staining was performed with an annexin-FITC apoptosis detection kit (BD Pharmingen, San Diego, Calif.) according to the manufacturer's instructions. Sub-diploid cells were detected by staining with 3 μg/mL propidium iodide (PI) (Molecular probes, Eugene, Oreg.), after overnight permeabilization in 70% ethanol. Fluorescence was analyzed by flow cytometry on a FACScalibur (Becton Dickinson, Mountain View, Calif.) equipped with a doublet-discrimination module and using Celiquest Pro software (Becton Dickinson).
(§2) Four human breast tumor cell lines, Cama-1, SW527, BT483 and MCF-7, were analyzed for cell death in response to Poly IC. Cells were cultured for 72 hours with 5 μg/ml PGN, 50 μg/ml Poly IC or 10 μg/ml LPS. Control cells were cultured with PBS. Cytotoxicity was assessed by crystal violet staining and expressed as a percent of control.

MCF-7 = test: Cell recovery by crystal violet staining; settings: 50 μg/ml Poly IC, 72 h
Method: as §1, §2

BT483 = test: Cell recovery by crystal violet staining; settings: 50 μg/ml Poly IC, 72 h
Method: as §1, §2

SW527 = test: Cell recovery by crystal violet staining; settings: 50 μg/ml Poly IC, 72 h
Method: as §1, §2

TLR3 mRNA = TLR3 mRNA expression by RT-PCR in Cama-1 cells; settings: 48 h
Method: Cama-1 cells were analyzed for TLR3 mRNA expression in response to Poly IC. Cama-1 cells were cultured in complete medium (DMEM F12 containing […] glucose and complemented with 2 mM L-glutamine, 10% fetal calf serum, 160 μg/mL gentalline, 2.5 mg/mL sodium bicarbonate) for 48 hours either alone or with LPS (5 μg/ml) and/or with Poly IC (5 μg/ml). The mRNA from each group of cells was extracted. The mRNA was then reverse-transcribed and PCR amplified for 35 cycles (as above in Example 1) with hTLR3 specific primers: TLR3F: […] (SEQ ID NO: 5) and TLR3R: […] (SEQ ID NO: 6). TLR3 mRNA could not be amplified from resting Cama-1 cells.
Amplified DNA from RT-PCR using hTLR3 specific primers was run on a gel.

Cama-1 cells = test: BrdU incorporation and subdiploid DNA content by FACS
Method: as §1
Two cell lines, the colon cancer cell line LS174T and the breast cancer cell line Cama-1, were analyzed for death and cell cycle changes. Cells were cultured for 48 hours in either the presence or absence of Poly IC (5 μg/ml). Following a 30-minute pulse with 1 μg/ml bromodeoxyuridine (BrdU), the cells were fixed overnight at 4° C. in 70% ethanol before staining with FITC-coupled anti-BrdU monoclonal antibody and 3 μg/ml propidium iodide. Cell death and the cell cycle were analyzed by flow cytometry (FACS). BrdU incorporation is a measure of proliferation, whereas propidium iodide staining allows the quantification of DNA content, in particular the subdiploid cell population undergoing apoptosis.
TLR3 was analyzed for its role in Poly IC induced apoptosis. Cama-1 cells were transfected with siRNA corresponding to either: an irrelevant sequence (Scr RNA; sequence: ACUAGUUCACGAGUCACCUtt) (SEQ ID NO: 21), or hTLR3 (sequence: CAGUGUUGAACCUUACCCAtt) (SEQ ID NO: 22). siRNA transfections were performed for 5 hours in 1 mL OptiMEM™ medium containing 3 μg/mL lipofectamine 2000 and 100 nM siRNA. Cells were then washed in phosphate buffered saline solution (PBS) and cultured for 72 hours in complete medium before subsequent 48 hour treatment with 5 μg/mL Poly IC. The cell cycle was then analyzed by FACS after staining with ethidium bromide, as described in Example 3.

[1] = system: phosphorylated Stat1 (tyrosine 701); test: Western Blot of Cama-1 cell lysate for phosphorylated Stat1; settings: 5 μg/ml Poly IC
Method: Cama-1 cells were lysed in 1% Nonidet-P40-containing buffer. 20 μg total protein was loaded per lane on SDS-Polyacrylamide gels (Invitrogen). Western Blots (WB) were performed with standard techniques using the antibodies described above. Anti IRAK-4 monoclonal antibodies were generated in the laboratory according to the protocol described in Fossiez et al., “T cell interleukin-17 induces stromal cells to produce proinflammatory and hematopoietic cytokines”, J. Exp. Med., vol. 183(6), pp. 2593-2603 (1996).
The involvement of type 1 interferon in TLR3 mediated apoptosis was evaluated. Cama-1 cells were incubated with 5 μg/ml Poly IC for either 0 hours, 1 hour, 6 hours, 18 hours or 24 hours. The presence of IFN-β, phosphorylated Stat1 (tyrosine 701) (P-Stat-1) and total Stat-1 in the cell lysate were analyzed by Western Blot.

IL-6 = IL-6 secretion by ELISA in siRNA transfected Cama-1 cells; settings: 24 h with 5 μg/ml Poly IC, untreated 10
Method: IL-6 secretion was measured in culture supernatants by standard Enzyme-Linked Assay (ELISA) using a DuoSet ELISA kit according to manufacturer's instructions (R&D Systems).
In parallel, IL-6 concentration in the supernatants of siRNA transfected Cama-1 cells cultured for 24 hours either with or without 5 μg/ml of Poly IC was determined by ELISA. […] In the siRNA IRAK-4 group, untreated and treated cells had IL-6 concentrations (pg/ml/10^6 cells) of 10 and 40, respectively. In the siRNA TRAF6 group, untreated and treated cells had IL-6 concentrations (pg/ml/10^6 cells) of 10 and 20, respectively.

## polyinosinic-polycytidylic acid [Poly IC]
Cama-1
  cell recovery, percent of control: 33%
MCF-7
  cell recovery, percent of control: 100%
BT483
  cell recovery, percent of control: 67%
SW527
  cell recovery, percent of control: 75%
TLR3 mRNA; 5 μg/ml, agent alone
  TLR3 mRNA expression: induced
TLR3 mRNA; both Poly IC (5 μg/ml) and LPS (5 μg/ml)
  TLR3 expression on gel: showed TLR3 expression
Cama-1 cells; Cama-1, 48 h with 5 μg/ml Poly IC (4% before treatment)
  percentage of cells with subdiploid DNA content: 17%
Cama-1 cells; Cama-1, 48 h with 5 μg/ml Poly IC (15% before treatment)
  percentage of cells that incorporated BrdU: 2%
Cama-1 cells; Cama-1 transfected with hTLR3 siRNA, 48 h with 5 μg/mL Poly IC
  percentage of subdiploid cells: 3%
Cama-1 cells; Cama-1 transfected with scrambled RNA, 48 h with 5 μg/mL Poly IC (from 2%)
  percentage of subdiploid cells: 45%
[1]
  time of maximum Stat1 phosphorylation: 6 h
[1]; 0 to 24 hours
  Stat1 phosphorylation: observed
IL-6; scr group
  IL-6 concentration in supernatant: 110 pg/ml/10^6 cells
IL-6; siRNA IRAK-4 group
  IL-6 concentration in supernatant: 40 pg/ml/10^6 cells
IL-6; siRNA TRAF6 group
  IL-6 concentration in supernatant: 20 pg/ml/10^6 cells
